Source: patent US6683079B2, “3-(amino-or aminoalkyl) pyridinone derivatives and their use for the treatment of HIV related diseases” (Centre National de la Recherche Scientifique, priority 1998, dated 2004)

Test system: HIV-1 strain IIIB
Experiment: Retrovirucidal effect on HIV-1 strain IIIB (Table 3)
Format: cell-based
Experimental: HIV-1 viral suspensions were obtained by coculture of MT4 cells and H9 cells chronically infected by HIV-ILai isolate. 200 μl of a cell supernatant containing viral particles (HIV-ILai: 100 TCID50) were incubated at room temperature with various concentrations of different inhibitors. After 3 hours, virions were washed through 0.02 μm anopore membrane in 1.5 mL Vectaspin tube (Whatman) for 10 minutes at 5 000 g. Each of the three subsequent washes was performed in the same conditions after the viral concentrate was refilled with 500 μL of RPMI medium. Then, the viral concentrate was readjusted to the initial volume with RPMI plus 10% foetal calf serum (FCS). The residual infectivity was assayed on P4 cells as described by CHARNEAU et al. (1994, J. Mol. Biol., 241, 651-662). Briefly, P4 cells were plated using 100 μL of DMEM medium plus 10% FCS in 96 plate multi-wells at 20×10^5 cells per mL. After overnight incubation at 37° C., the supernatant was discarded and the viral preparation (200 μL) was added. One day later the wells were washed three times in PBS. Each well was refilled with 200 μL of a reaction buffer containing 50 mM Tris-HCl pH 8.5, 100 mM 2-mercaptoethanol, 0.05% Triton X-100 and 5 mM 4-methylumbelliferyl β-D-galactopyranoside (MUG). After 3 hours at 37° C., the level of the reaction was measured in a fluorescence microplate reader.
The retrovirucidal effect of each pyridinone derivative listed in table 3 has been assayed according to the teachings of example 2, excepted that the anti-viral effect has been tested on the two following HIV-1 strains:
a) HIV-1 strain IIIB (see example 2);

[1] = retrovirucidal effect, pIC50=-log IC50 (M)

## CCc1c(C)[nH]c(=O)c(N(C)C)c1Cc1cccc(O)c1 [Compound 122]
pIC50=-log IC50, IC50 in M
  HIV1 pIC50 strain IIIB: 7.196

## CCc1c(C)[nH]c(=O)c(N)c1C(=O)Cc1cccc(C)c1 [Compound 124]
pIC50=-log IC50, IC50 in M
  HIV1 pIC50 strain IIIB: 4.389

## Cc1cccc(C(=O)c2c3c([nH]c(=O)c2N)CCC3)c1 [Compound 142]
pIC50=-log IC50, IC50 in M
  HIV1 pIC50 strain IIIB: 4.889

## CCc1c(C)[nH]c(=O)c(N(C)C)c1C(=O)c1ccc2c(c1)OCCO2 [Compound 112]
pIC50=-log IC50, IC50 in M
  HIV1 pIC50 strain IIIB: 6.394

## CCc1c(Cc2cc(C)cc(C)c2)c(N(C)C)c(=O)n(N)c1C [Compound 153]
pIC50=-log IC50, IC50 in M
  HIV1 pIC50 strain IIIB: 6.749

## CCc1c(C)[nH]c(=O)c(N(C)C)c1Cc1nccn1C [Compound 88]
pIC50=-log IC50, IC50 in M
  HIV1 pIC50 strain IIIB: <4

## CCc1c(C)[nH]c(=O)c(N(C)C)c1Cc1ccc2c(c1)OCO2 [Compound 147]
pIC50=-log IC50, IC50 in M
  HIV1 pIC50 strain IIIB: 7.721

## CCc1c(C)[nH]c(=S)c(N(C)C)c1Cc1cc(C)cc(C)c1 [Compound 137]
pIC50=-log IC50, IC50 in M
  HIV1 pIC50 strain IIIB: 7.658

## CCc1c(C)[nH]c(=O)c(N(C)C)c1CN(C)c1cc(C)cc(C)c1 [Compound 133]
pIC50=-log IC50, IC50 in M
  HIV1 pIC50 strain IIIB: 4.94

## Cc1cccc(Cc2c3c([nH]c(=O)c2N)CCCC3)c1 [Compound 91]
pIC50=-log IC50, IC50 in M
  HIV1 pIC50 strain IIIB: 5.73

## Cc1cccc(C(=O)c2c3c([nH]c(=O)c2N(C)C)CCC3)c1 [Compound 148]
pIC50=-log IC50, IC50 in M
  HIV1 pIC50 strain IIIB: 7.863

## CCc1c(C)[nH]c(=O)c(N(C)C)c1Cc1ccccc1Br [Compound 203]
[1]
  HIV1 pIC50 strain IIIB: 8.161

## CCc1c(C)[nH]c(=O)c(N(C)C)c1Cc1ccc2c(c1)OCCO2 [Compound 135]
pIC50=-log IC50, IC50 in M
  HIV1 pIC50 strain IIIB: 6.688

## CCc1c(C)[nH]c(=O)c(N(C)C)c1C(=O)c1cccc(-c2ccccc2)c1 [Compound 196]
pIC50=-log IC50, IC50 in M
  HIV1 pIC50 strain IIIB: 6.411

## CCc1c(C)[nH]c(=O)c(N(C)C)c1C(=O)c1cc(F)cc(C(F)(F)F)c1 [Compound 183]
pIC50=-log IC50, IC50 in M
  HIV1 pIC50 strain IIIB: 8.481

## CCc1c(Cc2cc(C)cc(C)c2)c(N(C)C)c(=O)n(-c2ccccc2)c1C [Compound 152]
pIC50=-log IC50, IC50 in M
  HIV1 pIC50 strain IIIB: 4.21

## CCc1c(C)[nH]c(=O)c(N)c1Cc1cccc(OC)c1 [Compound 120]
pIC50=-log IC50, IC50 in M
  HIV1 pIC50 strain IIIB: 5.033

## CCc1c(C)[nH]c(=O)c(N(C)C)c1C(=O)c1cccc(C)c1 [Compound 93]
pIC50=-log IC50, IC50 in M
  HIV1 pIC50 strain IIIB: 8.721

## CCc1c(C)[nH]c(=O)c(N)c1C(=O)c1cc(Br)cs1 [Compound 186]
pIC50=-log IC50, IC50 in M
  HIV1 pIC50 strain IIIB: 5.781

## Cc1cccc(Cc2c3c([nH]c(=O)c2N(C)C)CCCC3)c1 [Compound 92]
pIC50=-log IC50, IC50 in M
  HIV1 pIC50 strain IIIB: 7.807

## CCc1c(C)[nH]c(=O)c(N)c1C(=O)c1ccc2c(c1)OCCO2 [Compound 111]
pIC50=-log IC50, IC50 in M
  HIV1 pIC50 strain IIIB: <4

## CCc1c(C)[nH]c(=O)c(N)c1C(=O)c1cccc(C(F)(F)F)c1 [Compound 140]
pIC50=-log IC50, IC50 in M
  HIV1 pIC50 strain IIIB: 5.766

## CCc1c(C)[nH]c(=O)c(NC)c1Cc1cccc(C(F)(F)F)c1 [Compound 139]
pIC50=-log IC50, IC50 in M
  HIV1 pIC50 strain IIIB: 6.908

## CCCCc1cc(Cc2cc(C)cc(C)c2)c(N(C)C)c(=O)[nH]1 [Compound 90]
pIC50=-log IC50, IC50 in M
  HIV1 pIC50 strain IIIB: 6.359

## Cc1cc(C)cc(Cc2c(C)c(C(C)C)[nH]c(=O)c2N)c1 [Compound 118]
pIC50=-log IC50, IC50 in M
  HIV1 pIC50 strain IIIB: 4.042

## Cc1cc(C)cc(Cc2c(Cl)c[nH]c(=O)c2N)c1 [Compound 105]
pIC50=-log IC50, IC50 in M
  HIV1 pIC50 strain IIIB: 4.943

## CCc1[nH]c(=O)c(N(C)C)c(C(=O)c2cccc(C)c2)c1C [Compound 108]
pIC50=-log IC50, IC50 in M
  HIV1 pIC50 strain IIIB: 7.005

## CCc1c(C)[nH]c(=O)c(N)c1Oc1cc(C)cc(C)c1 [Compound 197]
[1]
  HIV1 pIC50 strain IIIB: 7.307

## CCc1c(C)[nH]c(=O)c(N(C)C)c1C(=O)Cc1cccc(C)c1 [Compound 127]
pIC50=-log IC50, IC50 in M
  HIV1 pIC50 strain IIIB: 4.174

## Cc1cccc(Cc2c3c([nH]c(=O)c2N(C)C)CCC3)c1 [Compound 132]
pIC50=-log IC50, IC50 in M
  HIV1 pIC50 strain IIIB: 7.863

## CCc1c(C)[nH]c(=O)c(N)c1Sc1cccc(Br)c1 [Compound 188]
pIC50=-log IC50, IC50 in M
  HIV1 pIC50 strain IIIB: 7.063

## CCc1c(C)[nH]c(=O)c(N(C)C)c1Cc1cccc(CO)c1 [Compound 110]
pIC50=-log IC50, IC50 in M
  HIV1 pIC50 strain IIIB: 7.783

## Cc1cccc(Cc2c3c([nH]c(=O)c2N)CCC3)c1 [Compound 131]
pIC50=-log IC50, IC50 in M
  HIV1 pIC50 strain IIIB: 5.799

## CCc1c(C)[nH]c(=O)c(N(C)C)c1Cc1ccc(OC)c(C)c1 [Compound 157]
pIC50=-log IC50, IC50 in M
  HIV1 pIC50 strain IIIB: 6.413

## CCc1c(C)[nH]c(=O)c(N(C)CCOCc2ccccc2)c1Cc1cccc(C)c1 [Compound 144]
pIC50=-log IC50, IC50 in M
  HIV1 pIC50 strain IIIB: 6.446
